Reference: ChEMBL document CHEMBL5120916, “Structure-Activity Relationships and Antileukemia Effects of the Tricyclic Benzoic Acid FTO Inhibitors” (J Med Chem, 2022)
Blank lines part the entries; values can stand above or below the compound they belong to. Calls of active or inactive are those of the source. No cut-off for these calls is given here.

Legend:
[1] = molecular target: T1, Alpha-ketoglutarate-dependent dioxygenase FTO (Homo sapiens, UniProt Q9C0B1); test: Inhibition of N-terminal His-tagged human FTO expressed in Escherichia coli BL21(DE3) by PAGE based assay
Target sequence in this assay (Q9C0B1 whole entry): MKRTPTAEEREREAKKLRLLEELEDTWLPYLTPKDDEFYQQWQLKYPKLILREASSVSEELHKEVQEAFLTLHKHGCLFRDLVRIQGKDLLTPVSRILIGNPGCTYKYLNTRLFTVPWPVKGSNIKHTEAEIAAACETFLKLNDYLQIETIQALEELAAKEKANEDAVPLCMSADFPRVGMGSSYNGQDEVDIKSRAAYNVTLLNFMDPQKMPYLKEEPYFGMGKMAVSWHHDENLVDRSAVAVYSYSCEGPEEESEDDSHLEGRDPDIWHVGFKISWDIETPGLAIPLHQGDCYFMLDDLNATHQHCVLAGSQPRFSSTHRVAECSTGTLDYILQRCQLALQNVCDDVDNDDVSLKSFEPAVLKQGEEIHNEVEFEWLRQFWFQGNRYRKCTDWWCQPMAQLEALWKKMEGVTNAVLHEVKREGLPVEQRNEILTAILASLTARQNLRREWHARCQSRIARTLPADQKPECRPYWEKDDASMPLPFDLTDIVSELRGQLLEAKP

NB-4 [2] = test: Antiproliferative activity against human NB-4 cells assessed as reduction in cell viability at 10 uM administered as single dose measured after 48 hrs by CCK-8 assay; assay type: functional, cell-based
MONO-MAC-6 [3] = test: Antiproliferative activity against human MONO-MAC-6 cells assessed as reduction in cell viability at 10 uM administered as single dose measured after 48 hrs by CCK-8 assay; assay type: functional, cell-based
[4] = molecular target: T1, Alpha-ketoglutarate-dependent dioxygenase FTO
Target sequence in this assay (Q9C0B1 whole entry, looked up): as the sequence (Q9C0B1 whole entry) above
Description: Binding affinity to N-terminal His-tagged human FTO expressed in Escherichia coli BL21(DE3) assessed as change in melting temperature at 1:5 protein to compound ratio by fluorescence based thermal shift assay

[5] = molecular target: T1, Alpha-ketoglutarate-dependent dioxygenase FTO; remark: listed apart in the source
Target sequence in this assay (Q9C0B1 whole entry, looked up): as the sequence (Q9C0B1 whole entry) above
Description: Binding affinity to N-terminal His-tagged human FTO expressed in Escherichia coli BL21(DE3) assessed as change in melting temperature at 1:20 protein to compound ratio by fluorescence based thermal shift assay

THP-1 = test: Antiproliferative activity against human THP-1 cells assessed as reduction in cell viability measured after 48 hrs by CCK-8 assay; details: THP-1, 48 h
MONO-MAC-6 [6] = test: Antitumor activity against human MONO-MAC-6 cells xenografted in busulfan treated NSG mouse assessed as increase in animal survial rate at 20 mg/kg, ip administered once daily for 22 days; assay type: functional, organism-based; details: time 22.0 day
NB-4 [7] = test: Inhibition of colony formation in human NB-4 cells measured after 14 days by nitroblue tetrazolium chloride staining based soft agar assay; assay type: functional, cell-based; details: dose 5-15 µM, time 14.0 day, DDE = dose-dependent effect
MONO-MAC-6 [8] = test: Antiproliferative activity against human MONO-MAC-6 cells assessed as reduction in cell viability measured after 48 hrs by CCK-8 assay; details: MONO-MAC-6, 48 h
NB-4 [9] = test: Antiproliferative activity against human NB-4 cells assessed as reduction in cell viability measured after 48 hrs by CCK-8 assay; details: NB-4, 48 h
[10] = Acute toxicity in BALB/c mouse assessed as body weight loss at 20 mg/kg, ip administered once daily for 7 days; assay type: organism-based; details: in vivo, 168 h, time 7 day
[11] = Toxicity in busulfan treated NSG mouse xenografted with human MONO-MAC-6 cells assessed as reduction in body weight at 20 mg/kg, ip administered once daily for 22 days; assay type: organism-based; details: in vivo, 528 h, time 22 day
HEL = test: Antiproliferative activity against HEL cells assessed as reduction in cell viability measured after 48 hrs by CCK-8 assay; details: Homo sapiens

SMILES: O=C(O)c1ccccc1Nc1c(Cl)cc(-c2ccn[nH]2)cc1Cl
IC50 [1]: 7.2 µM

SMILES: O=C(O)c1ccccc1Nc1c(Cl)cc(-c2cc(O)cc(O)c2)cc1Cl
IC50 [1]: 2.4 µM

SMILES: COc1cc(-c2c(C)noc2C)cc(OC)c1Nc1ccccc1C(=O)O
Activity (NB-4 [2]): Active
Activity (MONO-MAC-6 [3]): Active

SMILES: O=C(O)c1ccccc1Nc1c(Cl)cc(-c2cnoc2)cc1Cl
IC50 [1]: 1.7 µM

SMILES: Cc1noc(C)c1-c1ccc(Nc2ccccc2C(=O)O)cc1
Activity (NB-4 [2]): Active
Activity (MONO-MAC-6 [3]): Active

SMILES: O=C(O)c1ccccc1Nc1c(Cl)cc(-c2ccncc2)cc1Cl
IC50 [1]: 1.5 µM
ΔTm [4]: 0.5 °C
ΔTm [5]: 1.5 °C

SMILES: Cc1noc(C)c1-c1cc(F)c(Nc2ccccc2C(=O)O)c(Cl)c1
IC50 (THP-1): 7.3 µM
Activity (NB-4 [2]): Active
Activity (MONO-MAC-6 [6]): Active
inhibition (NB-4 [7]): Dde
IC50 (MONO-MAC-6 [8]): 1.9 µM
IC50 (NB-4 [9]): 2.1 µM
Activity [10]: Non-Toxic
Activity [11]: Toxic
Activity (MONO-MAC-6 [3]): Active
IC50 (HEL): 7.7 µM

Further lines, results first:

IC50 [1]: 1.9 µM
SMILES: Cc1cc(-c2c(C)noc2C)cc(C)c1Nc1ccccc1C(=O)O

IC50 [1]: 6.5 µM
SMILES: Cc1cc(-c2cc(Cl)c(Nc3ccccc3C(=O)O)c(Cl)c2)ccn1

IC50 [1]: 1.6 µM
SMILES: Cc1noc(C)c1-c1cc(Cl)c(Nc2cccc(F)c2C(=O)O)c(Cl)c1

IC50 [1]: 1.4 µM
SMILES: CCc1cc(-c2c(C)noc2C)cc(CC)c1Nc1ccccc1C(=O)O

IC50 [1]: 2.2 µM
SMILES: COc1cccc(Nc2c(Cl)cc(-c3c(C)noc3C)cc2Cl)c1C(=O)O

IC50 [1]: 1.1 µM
SMILES: Cc1noc(C)c1-c1cc(Cl)c(Nc2ccc(F)cc2C(=O)O)c(Cl)c1

IC50 [1]: 3.4 µM
SMILES: Cc1noc(C)c1-c1cc(Cl)c(Nc2cc(F)c(F)cc2C(=O)O)c(Cl)c1
